Data on two compounds can be found in US10532053B2, “Histone deacetylase inhibitor, and preparation method and use thereof” (GUANGDONG ZHONGSHENG PHARMACEUTICAL CO., LTD, priority 2015, dated 2020).

pIC50: −log10 of the molar value.

The target of one experiment is T1, HDAC1 (Homo sapiens, UniProt Q13547).
T1 construct: purchased BPS Bioscience
T1 sequence (Q13547 whole entry): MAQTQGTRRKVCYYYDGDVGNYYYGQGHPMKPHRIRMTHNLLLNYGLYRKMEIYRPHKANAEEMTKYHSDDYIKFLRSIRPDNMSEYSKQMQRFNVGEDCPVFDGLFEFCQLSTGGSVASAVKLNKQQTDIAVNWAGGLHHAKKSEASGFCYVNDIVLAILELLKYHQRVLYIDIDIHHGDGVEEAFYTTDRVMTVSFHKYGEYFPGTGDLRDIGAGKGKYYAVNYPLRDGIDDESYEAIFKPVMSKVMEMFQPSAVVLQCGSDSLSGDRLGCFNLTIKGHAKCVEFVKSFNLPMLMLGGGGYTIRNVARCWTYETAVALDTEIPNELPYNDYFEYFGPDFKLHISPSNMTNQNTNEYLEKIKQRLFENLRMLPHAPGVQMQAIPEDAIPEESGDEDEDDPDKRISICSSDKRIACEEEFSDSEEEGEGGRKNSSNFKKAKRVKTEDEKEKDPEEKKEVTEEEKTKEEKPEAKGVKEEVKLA
Description: HDAC inhibitory activity, fluorescence-coupled acetylated peptide substrate assay (Lys-Ac-AMC). It counts as biochemical. The settings on record: Table 2.
In the case of `Cc1nc(N(C)c2ccc(OCCCCCC(=O)NO)cc2)c2ccccc2n1` [II-4, N-hydroxy-6-(4-(methyl(2-methyl-4-quinazolinyl)amino)phenoxy)hexanamide], the pIC50 is 6.00 to 7.00.
In turn, `Cc1nc(N(C)c2ccc(Oc3ccc(C(=O)NO)cc3)cc2)c2ccccc2n1` [II-6, N-hydroxy-4-(4-(methyl(2-methyl-4-quinazolinyl)amino)phenoxy)benzamide] gave a pIC50 of 6.00 to 7.00.

Still in this experiment, the particulars now being: Table 3.
Compound `Cc1nc(N(C)c2ccc(OCCCCCC(=O)NO)cc2)c2ccccc2n1` [II-4, N-hydroxy-6-(4-(methyl(2-methyl-4-quinazolinyl)amino)phenoxy)hexanamide] showed a pIC50 of 6.57.
Regarding `Cc1nc(N(C)c2ccc(Oc3ccc(C(=O)NO)cc3)cc2)c2ccccc2n1` [II-6, N-hydroxy-4-(4-(methyl(2-methyl-4-quinazolinyl)amino)phenoxy)benzamide], the pIC50 was 6.26.

The target in another experiment is T2, HDAC6 (Homo sapiens, UniProt Q9UBN7).
T2 sequence (Q9UBN7 1-1215): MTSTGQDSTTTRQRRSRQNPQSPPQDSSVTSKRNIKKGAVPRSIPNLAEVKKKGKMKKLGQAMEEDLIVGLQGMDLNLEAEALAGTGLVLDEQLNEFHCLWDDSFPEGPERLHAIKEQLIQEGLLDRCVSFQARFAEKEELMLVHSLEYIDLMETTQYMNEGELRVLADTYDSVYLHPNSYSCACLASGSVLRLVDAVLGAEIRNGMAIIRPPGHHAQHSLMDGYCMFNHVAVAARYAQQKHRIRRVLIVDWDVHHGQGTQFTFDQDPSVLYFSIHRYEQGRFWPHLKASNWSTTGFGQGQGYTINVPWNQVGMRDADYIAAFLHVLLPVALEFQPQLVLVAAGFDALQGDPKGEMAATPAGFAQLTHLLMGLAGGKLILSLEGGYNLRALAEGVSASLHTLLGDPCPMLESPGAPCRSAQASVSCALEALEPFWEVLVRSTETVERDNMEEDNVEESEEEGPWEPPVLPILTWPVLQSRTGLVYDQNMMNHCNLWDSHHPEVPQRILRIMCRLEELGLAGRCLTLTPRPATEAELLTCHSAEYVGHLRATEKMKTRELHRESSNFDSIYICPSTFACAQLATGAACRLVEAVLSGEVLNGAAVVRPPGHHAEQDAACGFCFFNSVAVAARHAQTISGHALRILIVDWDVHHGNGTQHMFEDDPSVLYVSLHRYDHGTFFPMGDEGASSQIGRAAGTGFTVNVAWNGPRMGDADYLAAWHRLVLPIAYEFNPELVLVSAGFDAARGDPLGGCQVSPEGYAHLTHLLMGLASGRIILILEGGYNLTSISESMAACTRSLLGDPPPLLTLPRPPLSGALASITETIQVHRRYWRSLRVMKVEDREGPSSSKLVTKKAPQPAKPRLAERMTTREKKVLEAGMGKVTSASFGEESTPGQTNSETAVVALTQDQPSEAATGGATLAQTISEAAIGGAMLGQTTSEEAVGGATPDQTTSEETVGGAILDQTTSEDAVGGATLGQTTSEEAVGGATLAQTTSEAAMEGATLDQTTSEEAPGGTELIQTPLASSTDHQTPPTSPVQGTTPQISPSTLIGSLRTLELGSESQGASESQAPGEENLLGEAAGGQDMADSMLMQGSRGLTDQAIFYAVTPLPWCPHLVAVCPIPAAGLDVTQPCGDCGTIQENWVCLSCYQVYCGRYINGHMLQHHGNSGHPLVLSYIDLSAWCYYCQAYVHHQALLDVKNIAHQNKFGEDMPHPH
Nature of the experiment: HDAC inhibitory activity, fluorescence-coupled acetylated peptide substrate assay. Conditions: Table 2. It counts as biochemical.
The compound `Cc1nc(N(C)c2ccc(OCCCCCC(=O)NO)cc2)c2ccccc2n1` [II-4, N-hydroxy-6-(4-(methyl(2-methyl-4-quinazolinyl)amino)phenoxy)hexanamide] showed a pIC50 of 7.00 to 8.00.
Regarding `Cc1nc(N(C)c2ccc(Oc3ccc(C(=O)NO)cc3)cc2)c2ccccc2n1` [II-6, N-hydroxy-4-(4-(methyl(2-methyl-4-quinazolinyl)amino)phenoxy)benzamide], the pIC50 was 7.00 to 8.00.

Still in this experiment, the particulars now being: Table 3.
As for `Cc1nc(N(C)c2ccc(OCCCCCC(=O)NO)cc2)c2ccccc2n1` [II-4, N-hydroxy-6-(4-(methyl(2-methyl-4-quinazolinyl)amino)phenoxy)hexanamide], the pIC50 was 7.47.
Turning to `Cc1nc(N(C)c2ccc(Oc3ccc(C(=O)NO)cc3)cc2)c2ccccc2n1` [II-6, N-hydroxy-4-(4-(methyl(2-methyl-4-quinazolinyl)amino)phenoxy)benzamide], the pIC50 is 7.14.

The same experiment, now with this note: ratio of IC50 HDAC1 to HDAC6.
Take `Cc1nc(N(C)c2ccc(OCCCCCC(=O)NO)cc2)c2ccccc2n1` [II-4, N-hydroxy-6-(4-(methyl(2-methyl-4-quinazolinyl)amino)phenoxy)hexanamide]: the “Selection Ratio HDAC1/6” value is recorded as 8.0.
On to `Cc1nc(N(C)c2ccc(Oc3ccc(C(=O)NO)cc3)cc2)c2ccccc2n1` [II-6, N-hydroxy-4-(4-(methyl(2-methyl-4-quinazolinyl)amino)phenoxy)benzamide], for which the “Selection Ratio HDAC1/6” value is recorded as 7.7.

The same experiment, now with this note: ratio of IC50 HDAC8 to HDAC6.
With `Cc1nc(N(C)c2ccc(OCCCCCC(=O)NO)cc2)c2ccccc2n1` [II-4, N-hydroxy-6-(4-(methyl(2-methyl-4-quinazolinyl)amino)phenoxy)hexanamide], the “Selection Ratio HDAC8/6” value came out at 44.4.
Regarding `Cc1nc(N(C)c2ccc(Oc3ccc(C(=O)NO)cc3)cc2)c2ccccc2n1` [II-6, N-hydroxy-4-(4-(methyl(2-methyl-4-quinazolinyl)amino)phenoxy)benzamide], the “Selection Ratio HDAC8/6” value is recorded as 68.5.

The next experiment concerns Human cervical cancer cell Hela. Nature of the experiment: Cell proliferative activity (MTT / cck-8). In kind it is cell-based. Conditions: incubated for 96 hours, read-out: Half-Inhibitory Concentration IC50 Human cervical cancer cell Hela. How it is done: (§1) Tumor cell line A375: human melanoma cell; H460: lung adenocarcinoma cell; Hela: human cervical cancer cell; HepG2: human liver cancer cell; and SKOV-3: human ovarian cancer cell, were all purchased from ATCC and cultured to logarithmic phase according to the cultivation protocol recommended by ATCC. The cells in the logarithmic phase were plated onto a 96-well plate at 2000-3000 cells/well; in the case of adherent cells, the cells should be adherent to the wall. […] After that, the cell proliferative activity was determined by MTT assay for the tumor cells representing the solid tumor model and by cck-8 assay for the tumor cells representing the hematologic tumor model.
As to `Cc1nc(N(C)c2ccc(OCCCCCC(=O)NO)cc2)c2ccccc2n1` [II-4, N-hydroxy-6-(4-(methyl(2-methyl-4-quinazolinyl)amino)phenoxy)hexanamide], the pIC50 was less than 6.00.
Consider `Cc1nc(N(C)c2ccc(Oc3ccc(C(=O)NO)cc3)cc2)c2ccccc2n1` [II-6, N-hydroxy-4-(4-(methyl(2-methyl-4-quinazolinyl)amino)phenoxy)benzamide], for which the pIC50 is 6.00 to 7.00.

For another experiment, the system named is Human liver cancer cell HepG2. Nature of the experiment: Cell proliferative activity (MTT / cck-8). In kind it is cell-based. The settings on record: incubated for 96 hours, read-out: Half-Inhibitory Concentration IC50 Human liver cancer cell HepG2. How it is done: as §1
Take `Cc1nc(N(C)c2ccc(OCCCCCC(=O)NO)cc2)c2ccccc2n1` [II-4, N-hydroxy-6-(4-(methyl(2-methyl-4-quinazolinyl)amino)phenoxy)hexanamide]: the pIC50 is less than 6.00.
For `Cc1nc(N(C)c2ccc(Oc3ccc(C(=O)NO)cc3)cc2)c2ccccc2n1` [II-6, N-hydroxy-4-(4-(methyl(2-methyl-4-quinazolinyl)amino)phenoxy)benzamide], the pIC50 was 6.00 to 7.00.

The test system of another experiment is Human lung cancer cell H460. Description: Cell proliferative activity (MTT / cck-8). In kind it is cell-based. The settings on record: NCI-H460, incubated for 96 hours, read-out: Half-Inhibitory Concentration IC50 Human lung cancer cell H460. How it is done:
as §1
With `Cc1nc(N(C)c2ccc(OCCCCCC(=O)NO)cc2)c2ccccc2n1` [II-4, N-hydroxy-6-(4-(methyl(2-methyl-4-quinazolinyl)amino)phenoxy)hexanamide], the pIC50 was less than 6.00.
As to `Cc1nc(N(C)c2ccc(Oc3ccc(C(=O)NO)cc3)cc2)c2ccccc2n1` [II-6, N-hydroxy-4-(4-(methyl(2-methyl-4-quinazolinyl)amino)phenoxy)benzamide], the pIC50 was 6.00 to 7.00.

The test system of another experiment is Human melanoma A375. Nature of the experiment: Cell proliferative activity (MTT / cck-8). In kind it is cell-based. The settings on record: A-375, incubated for 96 hours, read-out: Half-Inhibitory Concentration IC50 Human melanoma A375. How it is done:
as §1
Regarding `Cc1nc(N(C)c2ccc(OCCCCCC(=O)NO)cc2)c2ccccc2n1` [II-4, N-hydroxy-6-(4-(methyl(2-methyl-4-quinazolinyl)amino)phenoxy)hexanamide], the pIC50 was less than 6.00.
Consider `Cc1nc(N(C)c2ccc(Oc3ccc(C(=O)NO)cc3)cc2)c2ccccc2n1` [II-6, N-hydroxy-4-(4-(methyl(2-methyl-4-quinazolinyl)amino)phenoxy)benzamide], for which the pIC50 was 6.00 to 7.00.

In the next experiment the test system is Human ovarian cancer cell SKOV-3. Nature of the experiment: Cell proliferative activity (MTT / cck-8). The settings on record: SK-OV-3, incubated for 96 hours, read-out: Half-Inhibitory Concentration IC50 Human ovarian cancer cell SKOV-3. In kind it is cell-based. How it is done: as §1
Regarding `Cc1nc(N(C)c2ccc(OCCCCCC(=O)NO)cc2)c2ccccc2n1` [II-4, N-hydroxy-6-(4-(methyl(2-methyl-4-quinazolinyl)amino)phenoxy)hexanamide], the pIC50 was 6.00 to 7.00.
Still for that read-out and setting: in the case of `Cc1nc(N(C)c2ccc(Oc3ccc(C(=O)NO)cc3)cc2)c2ccccc2n1` [II-6, N-hydroxy-4-(4-(methyl(2-methyl-4-quinazolinyl)amino)phenoxy)benzamide] it was 6.00 to 7.00.

The target in another experiment is T3, HDAC8 (Homo sapiens, UniProt Q9BY41).
T3 sequence (Q9BY41 1-377): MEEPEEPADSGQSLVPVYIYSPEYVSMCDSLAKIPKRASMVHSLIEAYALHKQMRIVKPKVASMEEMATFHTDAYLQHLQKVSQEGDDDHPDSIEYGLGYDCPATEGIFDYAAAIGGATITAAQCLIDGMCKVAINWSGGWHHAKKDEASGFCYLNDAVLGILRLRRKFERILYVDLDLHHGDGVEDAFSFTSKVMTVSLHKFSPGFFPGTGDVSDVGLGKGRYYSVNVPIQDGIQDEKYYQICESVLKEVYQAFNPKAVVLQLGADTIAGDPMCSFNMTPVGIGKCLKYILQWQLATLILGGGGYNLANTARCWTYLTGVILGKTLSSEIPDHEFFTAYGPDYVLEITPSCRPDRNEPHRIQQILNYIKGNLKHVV
Nature of the experiment: HDAC inhibitory activity, fluorescence-coupled acetylated peptide substrate assay. The settings on record: IC50 HDAC8, Table 2.
Description: The HDAC inhibitory activity was determined by fluorescence-coupled acetylated peptide substrate assay (Lys-Ac-AMC). HDAC1 protein was purchased from BPS Bioscience, and the reaction buffer system was a modified tris(hydroxymethyl)aminomethane buffer (pH 7.0). The small molecule compounds of the present invention were prepared by being dissolved in 100% DMSO. HDAC was prepared in a buffer at a certain concentration as an enzyme solution; trypsin and fluorescent group 4-amino-7-coumarin coupled-acetylated peptide (Ac-peptide) substrate were prepared in a buffer at a certain concentration as a substrate solution. The compounds were added into the reaction wells in a 384-well plate at a designed concentration of 10 μM, 1 μM, 0.5 μM, 0.1 μM, 0.05 μM, 0.01 μM, 0.005 μM, 0.001 μM, and 0.00005 μM, respectively, and then 15 μl of the HDAC solution was added into the reaction wells (15 μl of blank buffer to the control well). […] The results were analyzed by GraphPad Prism software and IC50 values were calculated according to the formula: Y=Background Data+(Top Data−Background Data)/(1+10^((Log IC50−X) a curve slope)), where Y: the inhibition rate (%) and X: the concentration of the compound.
`Cc1nc(N(C)c2ccc(OCCCCCC(=O)NO)cc2)c2ccccc2n1` [II-4, N-hydroxy-6-(4-(methyl(2-methyl-4-quinazolinyl)amino)phenoxy)hexanamide] gave a pIC50 of less than 6.00.
On the same count and under the same terms, under `Cc1nc(N(C)c2ccc(Oc3ccc(C(=O)NO)cc3)cc2)c2ccccc2n1` [II-6, N-hydroxy-4-(4-(methyl(2-methyl-4-quinazolinyl)amino)phenoxy)benzamide] stands less than 6.00.

Staying with this experiment, now noted: IC50 HDAC8, Table 3.
Turning to `Cc1nc(N(C)c2ccc(Oc3ccc(C(=O)NO)cc3)cc2)c2ccccc2n1` [II-6, N-hydroxy-4-(4-(methyl(2-methyl-4-quinazolinyl)amino)phenoxy)benzamide], the pIC50 was 5.31.

The same experiment, now with this note: read-out: IC50 HDAC8; Table 3.
With `Cc1nc(N(C)c2ccc(OCCCCCC(=O)NO)cc2)c2ccccc2n1` [II-4, N-hydroxy-6-(4-(methyl(2-methyl-4-quinazolinyl)amino)phenoxy)hexanamide], the pIC50 is 5.82.
